Assay results reported in patent US8067424B2, “Selective inhibitors for cyclin-dependent kinases” (Emory University, priority 2007, dated 2011).
Like-named read-outs stand apart in the source and are kept apart here.

What was measured:
[1] = system: UO-31
[2] = system: MDA-MB-435
[3] = system: A549/ATCC; experiment: cells; conditions: Homo sapiens
[4] = system: TK-10
[5] = system: SK-MEL-2
[6] = system: RXF 393
[7] = system: KM12; experiment: cells; conditions: Homo sapiens
[8] = system: K-562
[9] = system: SW-620
[10] = system: SK-MEL-5; experiment: cells; conditions: Homo sapiens
[11] = system: HOP-62
[12] = system: HCT-116; experiment: cells; conditions: Homo sapiens
[13] = system: IGROV1
[14] = target: AURORA B (Homo sapiens, UniProt Q96GD4); experiment: Kinase screen: Aurora B assay; type: biochemical; conditions: read-out: Mean Remaining Enzyme Activity (%)
Experimental: Generally, the same procedure was used for all assays. Since the total assay volume was 25.5 microliters, 0.5 microliters of inhibitors at 51× assay concentration were added to the plates before any other addition.
The basic procedure was to add 0.5 microliters inhibitor/control in DMSO to plate. Fifteen microliters of enzyme/substrate/buffer mix were added and incubated for 5 min. Ten microliters MgATP at the relevant concentration were added and incubated for 30 min. The assay was stopped by adding 5 microliters of 3% orthophosphoric acid. The assay was transferred to a p81 filter plate and read in a scintillation counter of 30 sec/well. Note that this assay procedure was not followed for MKK1, which instead involved a two-step assay, and PKC alpha, which required the addition of lipid vesicles.
Aurora B assay: Aurora B (5-20 mU diluted in 50 mM Tris pH 7.5, 0.1 mM EGTA, 0.1% b-mercaptoethanol, 1 mg/ml BSA) was assayed against a substrate peptide ([…]) (SEQ ID NO: 26) in a final volume of […] containing 50 mM Tris pH 7.5, 0.05% b-mercaptoethanol, 300 μM substrate peptide, 10 mM magnesium acetate and 0.02 mM [33P-g-ATP] (50-1000 cpm/pmole) and incubated for 30 min at room temperature. Assays were stopped by addition of 5 μl of 0.5 M (3%) orthophosphoric acid and then harvested onto P81 Unifilter plates with a wash buffer of 50 mM orthophosphoric acid.

[15] = UO-31, log10 concentration −4.0
[16] = UO-31, log10 concentration −5.0
[17] = UO-31, log10 concentration −6.0
[18] = UO-31, log10 concentration −7.0
[19] = UO-31, log10 concentration −8.0
[20] = MDA-MB-435, log10 concentration −4.0
[21] = MDA-MB-435, log10 concentration −5.0
[22] = MDA-MB-435, log10 concentration −6.0
[23] = MDA-MB-435, log10 concentration −7.0
[24] = MDA-MB-435, log10 concentration −8.0
[25] = TK-10, log10 concentration −4.0
[26] = TK-10, log10 concentration −5.0
[27] = TK-10, log10 concentration −6.0
[28] = TK-10, log10 concentration −7.0
[29] = TK-10, log10 concentration −8.0
[30] = SK-MEL-2, log10 concentration −4.0
[31] = SK-MEL-2, log10 concentration −5.0
[32] = SK-MEL-2, log10 concentration −6.0
[33] = SK-MEL-2, log10 concentration −7.0
[34] = SK-MEL-2, log10 concentration −8.0
[35] = RXF 393, log10 concentration −4.0
[36] = RXF 393, log10 concentration −5.0
[37] = RXF 393, log10 concentration −6.0
[38] = RXF 393, log10 concentration −7.0
[39] = RXF 393, log10 concentration −8.0
[40] = K-562, log10 concentration −4.0
[41] = K-562, log10 concentration −5.0
[42] = K-562, log10 concentration −6.0
[43] = K-562, log10 concentration −7.0
[44] = K-562, log10 concentration −8.0
[45] = SW-620, log10 concentration −4.0
[46] = SW-620, log10 concentration −5.0
[47] = SW-620, log10 concentration −7.0
[48] = SW-620, log10 concentration −8.0
[49] = HOP-62, log10 concentration −4.0
[50] = HOP-62, log10 concentration −5.0
[51] = HOP-62, log10 concentration −6.0
[52] = HOP-62, log10 concentration −7.0
[53] = HOP-62, log10 concentration −8.0
[54] = IGROV1, log10 concentration −4.0
[55] = IGROV1, log10 concentration −5.0
[56] = IGROV1, log10 concentration −6.0
[57] = IGROV1, log10 concentration −7.0
[58] = IGROV1, log10 concentration −8.0

Sequence of AURORA B (Q96GD4 whole entry): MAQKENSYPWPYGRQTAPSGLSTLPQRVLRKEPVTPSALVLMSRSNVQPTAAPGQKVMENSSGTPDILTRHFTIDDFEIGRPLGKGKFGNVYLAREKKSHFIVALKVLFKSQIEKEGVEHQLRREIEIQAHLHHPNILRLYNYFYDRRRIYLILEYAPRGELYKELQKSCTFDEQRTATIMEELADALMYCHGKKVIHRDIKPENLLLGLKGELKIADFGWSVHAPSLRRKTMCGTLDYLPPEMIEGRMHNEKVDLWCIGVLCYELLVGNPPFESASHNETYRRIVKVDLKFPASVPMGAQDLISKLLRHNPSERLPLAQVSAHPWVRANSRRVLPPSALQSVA

CC(C)c1cnn2c(NCc3ccccc3)cc(N[C@@H](CO)[C@H](O)CO)nc12 [ICEC0318, (3S)-3-(7-(Benzylamino)-3-isopropylpyrazolo[1,5-a]pyrimidin-5-ylamino)butane-1,2,4-triol]
TGI ([1]; UO-31 (Renal Cancer)): 2.07E−5
Mean Optical Densities [1, 15]: 0.522
Percent Growth [1, 15]: −4%
Mean Optical Densities [1, 16]: 0.557
Percent Growth [1, 16]: 2%
Mean Optical Densities [1, 17]: 0.578
Percent Growth [1, 17]: 4%
Mean Optical Densities [1, 18]: 1.371
Percent Growth [1, 18]: 89%
Mean Optical Densities [1, 19]: 1.378
Percent Growth [1, 19]: 90%
TGI ([2]; MDA-MB-435 (Breast Cancer)): 1.15E−5
Mean Optical Densities [2, 20]: 0.242
Percent Growth [2, 20]: −48%
Mean Optical Densities [2, 21]: 0.511
Percent Growth [2, 21]: 3%
Mean Optical Densities [2, 22]: 0.659
Percent Growth [2, 22]: 13%
Mean Optical Densities [2, 23]: 1.781
Percent Growth [2, 23]: 86%
Mean Optical Densities [2, 24]: 2.132
Percent Growth [2, 24]: 109%
GI50 ([3]; A549): 338 nM
CC50 ([3]; A549, read-out: LC50): > 100000 nM
TGI ([4]; TK-10 (Renal Cancer)): >1.00E−4
Mean Optical Densities [4, 25]: 0.610
Percent Growth [4, 25]: 18%
Mean Optical Densities [4, 26]: 0.593
Percent Growth [4, 26]: 15%
Mean Optical Densities [4, 27]: 0.572
Percent Growth [4, 27]: 12%
Mean Optical Densities [4, 28]: 1.192
Percent Growth [4, 28]: 101%
Mean Optical Densities [4, 29]: 1.202
Percent Growth [4, 29]: 103%
TGI ([5]; SK-MEL-2 (Melanoma)): 8.22E−5
Mean Optical Densities [5, 30]: 1.061
Percent Growth [5, 30]: −1%
Mean Optical Densities [5, 31]: 1.218
Percent Growth [5, 31]: 12%
Mean Optical Densities [5, 32]: 1.290
Percent Growth [5, 32]: 18%
Mean Optical Densities [5, 33]: 2.275
Percent Growth [5, 33]: 99%
Mean Optical Densities [5, 34]: 2.282
Percent Growth [5, 34]: 100%
TGI ([6]; RXF 393 (Renal Cancer)): 5.27E−7
Mean Optical Densities [6, 35]: 0.239
Percent Growth [6, 35]: −54%
Mean Optical Densities [6, 36]: 0.308
Percent Growth [6, 36]: −40%
Mean Optical Densities [6, 37]: 0.333
Percent Growth [6, 37]: −35%
Mean Optical Densities [6, 38]: 0.928
Percent Growth [6, 38]: 92%
Mean Optical Densities [6, 39]: 0.980
Percent Growth [6, 39]: 103%
GI50 ([7]; KM12): 275 nM
CC50 ([7]; KM12, read-out: LC50): > 100000 nM
TGI ([8]; K-562 (Leukemia)): >1.00E−4
Mean Optical Densities [8, 40]: 0.341
Percent Growth [8, 40]: 17%
Mean Optical Densities [8, 41]: 0.325
Percent Growth [8, 41]: 15%
Mean Optical Densities [8, 42]: 0.334
Percent Growth [8, 42]: 16%
Mean Optical Densities [8, 43]: 0.991
Percent Growth [8, 43]: 79%
Mean Optical Densities [8, 44]: 1.064
Percent Growth [8, 44]: 86%
TGI ([9]; SW-620 (Colon Cancer)): 1.00E−6
Mean Optical Densities [9, 45]: 0.101
Percent Growth [9, 45]: −29%
Mean Optical Densities [9, 46]: 0.125
Percent Growth [9, 46]: −12%
Mean Optical Densities ([9]; SW-620, log10 concentration −6.0): 0.412
Mean Optical Densities [9, 47]: 0.782
Percent Growth [9, 47]: 92%
Mean Optical Densities [9, 48]: 0.839
Percent Growth [9, 48]: 100%
GI50 ([10]; SK-MEL-5): 192 nM
CC50 ([10]; SK-MEL-5, read-out: LC50): 5980 nM
TGI ([11]; HOP-62 (Non-Small Cell Lung Cancer)): 7.68E−7
Mean Optical Densities [11, 49]: 0.336
Percent Growth [11, 49]: −28%
Mean Optical Densities [11, 50]: 0.393
Percent Growth [11, 50]: −15%
Mean Optical Densities [11, 51]: 0.412
Percent Growth [11, 51]: −12%
Mean Optical Densities [11, 52]: 1.165
Percent Growth [11, 52]: 89%
Mean Optical Densities [11, 53]: 1.312
Percent Growth [11, 53]: 107%
GI50 ([12]; HCT-116): 161 nM
CC50 ([12]; HCT-116, read-out: LC50): > 100000 nM
TGI ([13]; IGROV1 (Ovarian Cancer)): >1.00E−4
Mean Optical Densities [13, 54]: 0.451
Percent Growth [13, 54]: 4%
Mean Optical Densities [13, 55]: 0.510
Percent Growth [13, 55]: 10%
Mean Optical Densities [13, 56]: 0.528
Percent Growth [13, 56]: 12%
Mean Optical Densities [13, 57]: 1.088
Percent Growth [13, 57]: 68%
Mean Optical Densities [13, 58]: 1.429
Percent Growth [13, 58]: 103%

CC(C)c1cnn2c(NCc3ccccc3)cc(NCCCCCCCN)nc12 [BS-181]
remaining activity at 10 µM [14]: 95%
